Columns and labels:
[1] = tested on: NSCLC; conditions: pivotal Phase III; cited from earlier work
[2] = biological target: RXR β (Homo sapiens, UniProt P28702); assay: cell-based; conditions: read-out: RXR EC90 β
Method: (§1) RXR EC90:RAR EC10 ratio is calculated by taking the inverse of the RXR EC90 α, β and γ values (nM) divided by the corresponding inverse of the RAR EC10 α, β and γ values (nM). For example, the RXR EC90:RAR EC10 ratio is determined by dividing RAR EC10 by RXR EC90 for α, β and γ. Thus, a value is obtained for all three receptors, referred to herein as (RXR EC90:RAR EC10 ratio)α, (RXR EC90:RAR EC10 ratio)β and (RXR EC90:RAR EC10 ratio)γ for α β and γ, respectively. For example, (RXR EC90:RAR EC10 ratio), is determined by dividing RAR EC10α by RXRα EC90. The mean RXR EC90:RAR EC10 ratio is the average of all three values. An example is provided below in Tables 1A and 1B.

[3] = tested on: RXR; assay: RXR pan-agonist potency; format: cell-based
[4] = Repeated oral dose study for 4 weeks followed by recovery, dogs; format: in vivo; conditions: repeated oral dose 4 weeks
[5] = tested on: mouse lymphoma TK; assay: Mouse lymphoma TK genotoxicity assay; format: cell-based
[6] = tested on: human H292 NSCLC tumors; assay: Animal models of lung cancer (H292 NSCLC xenograft); format: in vivo, nude mice
Method: (§2) Nude mice were randomized into 4 groups of 10 animals each based on body weight and xenografted subcutaneously in the right flank with H292 cells (2×10^6 cells). Drug treatment was started immediately after xenografting and continued for 35 days (5 animals of each group) or 55 days (remaining 5 animals). […] Tumor sizes were measured periodically for 35 days (FIG. 1A). Animals #1-5 of each group were sacrificed after 35 days of treatment and gastrocnemus muscles were determined (FIG. 10). The body weights and overall appearance of animals #6 through #10 from each group were followed for an extended period (FIG. 1B and FIG. 1D). To appropriately show the overall health of these animals, pictures were taken from their tumor-free left flank on day 55 (FIG. 1D).

[7] = tested on: breast cancer; assay: Animal models of breast cancer; format: in vivo
[8] = tested on: cell lines derived from a variety of tumor types; assay: Tumor growth inhibition in cell lines; format: cell-based
[9] = Ames genotoxicity test
[10] = Repeated oral dose study for 4 weeks followed by recovery, rats; format: in vivo; conditions: repeated oral dose 4 weeks
[11] = biological target: RAR γ (Homo sapiens, UniProt P13631)
Method: as §1

[12] = biological target: RAR β (Homo sapiens, UniProt P10826)
Method: as §1

[13] = biological target: RAR α (Homo sapiens, UniProt P10276)
Sequence of RAR α (P10276 whole entry): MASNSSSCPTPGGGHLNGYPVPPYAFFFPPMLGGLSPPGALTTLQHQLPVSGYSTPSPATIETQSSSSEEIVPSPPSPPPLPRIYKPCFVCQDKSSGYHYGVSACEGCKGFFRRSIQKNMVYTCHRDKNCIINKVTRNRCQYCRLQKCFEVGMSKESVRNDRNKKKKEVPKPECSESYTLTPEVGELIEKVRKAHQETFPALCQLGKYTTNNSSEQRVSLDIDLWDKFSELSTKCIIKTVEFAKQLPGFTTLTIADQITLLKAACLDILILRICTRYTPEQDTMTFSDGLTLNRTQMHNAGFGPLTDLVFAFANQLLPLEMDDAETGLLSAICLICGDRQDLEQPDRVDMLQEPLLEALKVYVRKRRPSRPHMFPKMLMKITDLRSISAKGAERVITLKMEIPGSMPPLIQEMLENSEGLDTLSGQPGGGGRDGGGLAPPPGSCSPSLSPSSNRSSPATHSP
Method: as §1

[14] = Rat micronucleus genotoxicity assay; format: in vivo
[15] = tested on: cancer-induced cachexia; assay: Models of cancer-induced cachexia; format: in vivo
Method: as §2

Sequence of RXR β (P28702 whole entry): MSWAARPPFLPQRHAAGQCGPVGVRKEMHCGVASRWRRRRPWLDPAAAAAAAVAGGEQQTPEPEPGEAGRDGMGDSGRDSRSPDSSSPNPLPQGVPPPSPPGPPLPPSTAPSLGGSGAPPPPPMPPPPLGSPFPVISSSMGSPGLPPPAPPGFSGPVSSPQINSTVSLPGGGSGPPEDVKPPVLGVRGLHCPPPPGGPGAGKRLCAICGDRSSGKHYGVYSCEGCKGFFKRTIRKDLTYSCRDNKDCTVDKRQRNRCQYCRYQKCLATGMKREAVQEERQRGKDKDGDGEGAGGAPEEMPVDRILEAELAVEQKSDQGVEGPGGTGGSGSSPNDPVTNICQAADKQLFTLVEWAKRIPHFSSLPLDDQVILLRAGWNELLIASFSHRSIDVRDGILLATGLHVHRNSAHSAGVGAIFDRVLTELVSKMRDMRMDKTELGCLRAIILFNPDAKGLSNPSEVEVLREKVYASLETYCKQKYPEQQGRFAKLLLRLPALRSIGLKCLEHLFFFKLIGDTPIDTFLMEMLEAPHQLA

## C=C(c1ccc(C(=O)O)cc1)c1cc2c(cc1C)C(C)(C)CCC2(C)C [TARGRETIN ®, bexarotene]
[1]
  survival: did not show increased survival
[2]
  EC90: 100 nM

## CC(/C=C/[C@@H]1C[C@]1(C)c1ccc2c(c1)C(C)(C)CCC2(C)C)=C\C(=O)O [VTP 194204, 3,7-dimethyl-6(S),7(S)-methano,7-[1,1,4,4-tetramethyl-1,2,3,4-tetrahydron-aphth-7-yl]2(E), 4(E) heptadienoic acid]
[3]
  EC50: […]
[4]
  severe toxic dose: […]
[5]
  genotoxicity: No genotoxicity
[6]
  tumor growth inhibition: tumor growth inhibitory effects
[7]
  tumor growth inhibition: tumor growth inhibitory effects
[8]
  tumor growth inhibition: tumor growth inhibitory effects
[9]
  genotoxicity: No genotoxicity
[10]
  severe toxic dose: […]
[11]
  RAR EC10 γ: […]
[12]
  RAR EC10 β: […]
[13]
  RAR EC10 α: 300 nM
[14]
  genotoxicity: No genotoxicity
[15]
  body weight: maintained body weight
  food consumption: improved food consumption
  muscle and adipose tissue: prevented loss of muscle and adipose tissue
  survival: prolonged survival

From patent publication US10973788B2, “Treatment of cancer with specific RXR agonists” (Io Therapeutics, Inc., priority 2005, dated 2021)
